Experimental data taken from PMC9797307, “Measurement of Pharmacokinetics and Tissue Distribution of Four Compounds from Nauclea officinalis in Rat Plasma and Tissues through HPLC-MS/MS” (Journal of Analytical Methods in Chemistry, 2022).

Assay: Stability of QC samples in rat plasma and tissue homogenates under different storage conditions
Format: in vitro ADME
Settings: in % (unit assumed)

O=C(/C=C/c1ccc(O)c(O)c1)O[C@@H]1C[C@](O)(C(=O)O)C[C@@H](O)[C@H]1O [Chlorogenic acid]
Accuracy, Ambient temperature for 4 h (Brain, 2 ng/mL): 110.33 ± 7.55 | Accuracy, Three freeze-thraw cycles (Brain, 2 ng/mL): 105.65 ± 10.92 | Accuracy, −80°C for 30 days (Brain, 2 ng/mL): 90.73 ± 10.25 | Accuracy, Ambient temperature for 4 h (Brain, 4 ng/mL): 89.12 ± 9.00 | Accuracy, Three freeze-thraw cycles (Brain, 4 ng/mL): 90.68 ± 10.51 | Accuracy, −80°C for 30 days (Brain, 4 ng/mL): 105.32 ± 9.72 | Accuracy, Ambient temperature for 4 h (Brain, 100 ng/mL): 91.93 ± 9.93 | Accuracy, Three freeze-thraw cycles (Brain, 100 ng/mL): 108.13 ± 9.91 | Accuracy, −80°C for 30 days (Brain, 100 ng/mL): 105.48 ± 6.92 | Accuracy, Ambient temperature for 4 h (Brain, 2400 ng/mL): 102.93 ± 5.79 | Accuracy, Three freeze-thraw cycles (Brain, 2400 ng/mL): 96.57 ± 10.12 | Accuracy, −80°C for 30 days (Brain, 2400 ng/mL): 97.98 ± 9.56 | Accuracy, Ambient temperature for 4 h (Heart, 2 ng/mL): 102.73 ± 12.98 | Accuracy, Three freeze-thraw cycles (Heart, 2 ng/mL): 91.72 ± 6.33 | Accuracy, −80°C for 30 days (Heart, 2 ng/mL): 88.98 ± 5.73 | Accuracy, Ambient temperature for 4 h (Heart, 4 ng/mL): 96.88 ± 11.06 | Accuracy, Three freeze-thraw cycles (Heart, 4 ng/mL): 99.03 ± 10.17 | Accuracy, −80°C for 30 days (Heart, 4 ng/mL): 102.27 ± 10.30 | Accuracy, Ambient temperature for 4 h (Heart, 100 ng/mL): 112.83 ± 9.11 | Accuracy, Three freeze-thraw cycles (Heart, 100 ng/mL): 111.00 ± 7.72 | Accuracy, −80°C for 30 days (Heart, 100 ng/mL): 112.62 ± 8.15 | Accuracy, Ambient temperature for 4 h (Heart, 2400 ng/mL): 108.60 ± 8.41 | Accuracy, Three freeze-thraw cycles (Heart, 2400 ng/mL): 110.55 ± 8.11 | Accuracy, −80°C for 30 days (Heart, 2400 ng/mL): 104.85 ± 10.69 | Accuracy, Ambient temperature for 4 h (Kidney, 2 ng/mL): 110.07 ± 7.34 | Accuracy, Three freeze-thraw cycles (Kidney, 2 ng/mL): 97.22 ± 7.67 | Accuracy, −80°C for 30 days (Kidney, 2 ng/mL): 89.87 ± 9.23 | Accuracy, Ambient temperature for 4 h (Kidney, 4 ng/mL): 87.63 ± 7.76 | Accuracy, Three freeze-thraw cycles (Kidney, 4 ng/mL): 87.60 ± 9.26 | Accuracy, −80°C for 30 days (Kidney, 4 ng/mL): 89.60 ± 9.05 | Accuracy, Ambient temperature for 4 h (Kidney, 100 ng/mL): 112.00 ± 7.01 | Accuracy, Three freeze-thraw cycles (Kidney, 100 ng/mL): 111.17 ± 7.44 | Accuracy, −80°C for 30 days (Kidney, 100 ng/mL): 103.22 ± 11.32 | Accuracy, Ambient temperature for 4 h (Kidney, 2400 ng/mL): 100.55 ± 5.11 | Accuracy, Three freeze-thraw cycles (Kidney, 2400 ng/mL): 100.45 ± 3.96 | Accuracy, −80°C for 30 days (Kidney, 2400 ng/mL): 101.23 ± 4.69 | Accuracy, Ambient temperature for 4 h (Liver, 2 ng/mL): 88.47 ± 6.93 | Accuracy, Three freeze-thraw cycles (Liver, 2 ng/mL): 88.47 ± 7.22 | Accuracy, −80°C for 30 days (Liver, 2 ng/mL): 87.43 ± 7.74 | Accuracy, Ambient temperature for 4 h (Liver, 4 ng/mL): 86.27 ± 7.32 | Accuracy, Three freeze-thraw cycles (Liver, 4 ng/mL): 86.00 ± 6.23 | Accuracy, −80°C for 30 days (Liver, 4 ng/mL): 87.30 ± 4.35 | Accuracy, Ambient temperature for 4 h (Liver, 100 ng/mL): 99.82 ± 2.89 | Accuracy, Three freeze-thraw cycles (Liver, 100 ng/mL): 102.27 ± 4.97 | Accuracy, −80°C for 30 days (Liver, 100 ng/mL): 87.13 ± 5.77 | Accuracy, Ambient temperature for 4 h (Liver, 2400 ng/mL): 104.17 ± 2.14 | Accuracy, Three freeze-thraw cycles (Liver, 2400 ng/mL): 99.98 ± 1.86 | Accuracy, −80°C for 30 days (Liver, 2400 ng/mL): 87.02 ± 5.24 | Accuracy, Ambient temperature for 4 h (Lung, 2 ng/mL): 103.27 ± 8.01 | Accuracy, Three freeze-thraw cycles (Lung, 2 ng/mL): 112.93 ± 9.57 | Accuracy, −80°C for 30 days (Lung, 2 ng/mL): 113.77 ± 9.20 | Accuracy, Ambient temperature for 4 h (Lung, 4 ng/mL): 101.83 ± 6.41 | Accuracy, Three freeze-thraw cycles (Lung, 4 ng/mL): 100.07 ± 10.39 | Accuracy, −80°C for 30 days (Lung, 4 ng/mL): 98.77 ± 6.15 | Accuracy, Ambient temperature for 4 h (Lung, 100 ng/mL): 111.50 ± 5.47 | Accuracy, Three freeze-thraw cycles (Lung, 100 ng/mL): 110.17 ± 7.14 | Accuracy, −80°C for 30 days (Lung, 100 ng/mL): 110.03 ± 9.33 | Accuracy, Ambient temperature for 4 h (Lung, 2400 ng/mL): 100.67 ± 10.17 | Accuracy, Three freeze-thraw cycles (Lung, 2400 ng/mL): 104.88 ± 8.23 | Accuracy, −80°C for 30 days (Lung, 2400 ng/mL): 110.17 ± 4.54 | Accuracy, Ambient temperature for 4 h (Plasma, 2 ng/mL): 101.68 ± 8.39 | Accuracy, Three freeze-thraw cycles (Plasma, 2 ng/mL): 101.23 ± 12.44 | Accuracy, −80°C for 30 days (Plasma, 2 ng/mL): 93.35 ± 10.78 | Accuracy, Ambient temperature for 4 h (Plasma, 4 ng/mL): 86.78 ± 6.16 | Accuracy, Three freeze-thraw cycles (Plasma, 4 ng/mL): 95.02 ± 5.39 | Accuracy, −80°C for 30 days (Plasma, 4 ng/mL): 98.92 ± 12.32 | Accuracy, Ambient temperature for 4 h (Plasma, 100 ng/mL): 112.33 ± 3.72 | Accuracy, Three freeze-thraw cycles (Plasma, 100 ng/mL): 100.68 ± 6.22 | Accuracy, −80°C for 30 days (Plasma, 100 ng/mL): 113.17 ± 4.96 | Accuracy, Ambient temperature for 4 h (Plasma, 2400 ng/mL): 98.40 ± 5.56 | Accuracy, Three freeze-thraw cycles (Plasma, 2400 ng/mL): 91.98 ± 4.75 | Accuracy, −80°C for 30 days (Plasma, 2400 ng/mL): 112.67 ± 7.58 | Accuracy, Ambient temperature for 4 h (Small intestine, 2 ng/mL): 105.00 ± 8.20 | Accuracy, Three freeze-thraw cycles (Small intestine, 2 ng/mL): 103.90 ± 4.49 | Accuracy, −80°C for 30 days (Small intestine, 2 ng/mL): 101.42 ± 7.82 | Accuracy, Ambient temperature for 4 h (Small intestine, 4 ng/mL): 91.73 ± 4.49 | Accuracy, Three freeze-thraw cycles (Small intestine, 4 ng/mL): 99.78 ± 7.70 | Accuracy, −80°C for 30 days (Small intestine, 4 ng/mL): 106.70 ± 5.43 | Accuracy, Ambient temperature for 4 h (Small intestine, 100 ng/mL): 95.90 ± 12.31 | Accuracy, Three freeze-thraw cycles (Small intestine, 100 ng/mL): 100.93 ± 12.33 | Accuracy, −80°C for 30 days (Small intestine, 100 ng/mL): 99.07 ± 12.41 | Accuracy, Ambient temperature for 4 h (Small intestine, 2400 ng/mL): 112.00 ± 5.37 | Accuracy, Three freeze-thraw cycles (Small intestine, 2400 ng/mL): 111.67 ± 6.12 | Accuracy, −80°C for 30 days (Small intestine, 2400 ng/mL): 110.83 ± 6.68 | Accuracy, Ambient temperature for 4 h (Spleen, 2 ng/mL): 97.62 ± 8.11 | Accuracy, Three freeze-thraw cycles (Spleen, 2 ng/mL): 105.55 ± 7.56 | Accuracy, −80°C for 30 days (Spleen, 2 ng/mL): 109.70 ± 13.05 | Accuracy, Ambient temperature for 4 h (Spleen, 4 ng/mL): 105.82 ± 9.91 | Accuracy, Three freeze-thraw cycles (Spleen, 4 ng/mL): 103.68 ± 9.71 | Accuracy, −80°C for 30 days (Spleen, 4 ng/mL): 98.88 ± 4.16 | Accuracy, Ambient temperature for 4 h (Spleen, 100 ng/mL): 112.00 ± 7.82 | Accuracy, Three freeze-thraw cycles (Spleen, 100 ng/mL): 106.82 ± 6.88 | Accuracy, −80°C for 30 days (Spleen, 100 ng/mL): 111.17 ± 7.17 | Accuracy, Ambient temperature for 4 h (Spleen, 2400 ng/mL): 101.52 ± 7.73 | Accuracy, Three freeze-thraw cycles (Spleen, 2400 ng/mL): 106.67 ± 5.43 | Accuracy, −80°C for 30 days (Spleen, 2400 ng/mL): 104.73 ± 7.04 | Accuracy, Ambient temperature for 4 h (Stomach, 2 ng/mL): 113.08 ± 11.06 | Accuracy, Three freeze-thraw cycles (Stomach, 2 ng/mL): 113.58 ± 8.22 | Accuracy, −80°C for 30 days (Stomach, 2 ng/mL): 109.08 ± 9.97 | Accuracy, Ambient temperature for 4 h (Stomach, 4 ng/mL): 102.70 ± 10.17 | Accuracy, Three freeze-thraw cycles (Stomach, 4 ng/mL): 98.87 ± 9.82 | Accuracy, −80°C for 30 days (Stomach, 4 ng/mL): 89.87 ± 7.04 | Accuracy, Ambient temperature for 4 h (Stomach, 100 ng/mL): 93.75 ± 8.65 | Accuracy, Three freeze-thraw cycles (Stomach, 100 ng/mL): 93.47 ± 6.76 | Accuracy, −80°C for 30 days (Stomach, 100 ng/mL): 107.33 ± 5.89 | Accuracy, Ambient temperature for 4 h (Stomach, 2400 ng/mL): 107.17 ± 8.68 | Accuracy, Three freeze-thraw cycles (Stomach, 2400 ng/mL): 100.23 ± 4.63 | Accuracy, −80°C for 30 days (Stomach, 2400 ng/mL): 99.73 ± 10.09
